Experimental data as given in PubChem BioAssay (NCI).
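Assay format: 96-well plates, 48-hour exposure. TGI marks complete inhibition of growth.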

Key:
Assay in all cases: NCI-60 cell line screen, 48 h
A498 renal = system: A498 renal
MOLT-4 leukemia = system: MOLT-4 leukemia
KM12 colon = system: KM12 colon
CAKI-1 renal = system: CAKI-1 renal
M14 melanoma = system: M14 melanoma
SF-268 CNS = system: SF-268 CNS
SR leukemia = system: SR leukemia
UACC-257 melanoma = system: UACC-257 melanoma
HOP-92 NSCLC = system: HOP-92 NSCLC
HS 578T breast = system: HS 578T breast
MDA-MB-435 = system: MDA-MB-435
SK-MEL-2 melanoma = system: SK-MEL-2 melanoma
UACC-62 melanoma = system: UACC-62 melanoma
NCI-H522 lung = system: NCI-H522 lung
SN12C renal = system: SN12C renal
PC-3 prostate = system: PC-3 prostate
OVCAR-5 ovarian = system: OVCAR-5 ovarian
786-0 renal = system: 786-0 renal
OVCAR-8 ovarian = system: OVCAR-8 ovarian
EKVX NSCLC = system: EKVX NSCLC
SK-MEL-28 melanoma = system: SK-MEL-28 melanoma
HCT-15 colon = system: HCT-15 colon
CCRF-CEM leukemia = system: CCRF-CEM leukemia
HT29 colon = system: HT29 colon
NCI-H460 lung = system: NCI-H460 lung
SNB-75 CNS = system: SNB-75 CNS
A549 NSCLC = system: A549 NSCLC
MALME-3M melanoma = system: MALME-3M melanoma
HL-60(TB) leukemia = system: HL-60(TB) leukemia
NCI-H23 lung = system: NCI-H23 lung
HCC-2998 colon = system: HCC-2998 colon
MCF7 breast = system: MCF7 breast
MDA-N = system: MDA-N
TK-10 renal = system: TK-10 renal
SK-OV-3 ovarian = system: SK-OV-3 ovarian
BT-549 breast = system: BT-549 breast
DU-145 prostate = system: DU-145 prostate
IGROV1 ovarian = system: IGROV1 ovarian
SW-620 colon = system: SW-620 colon
SNB-19 CNS = system: SNB-19 CNS
U251 CNS = system: U251 CNS
UO-31 renal = system: UO-31 renal
MDA-MB-231 breast = system: MDA-MB-231 breast
HCT-116 colon = system: HCT-116 colon
SK-MEL-5 melanoma = system: SK-MEL-5 melanoma
ACHN renal = system: ACHN renal
T-47D breast = system: T-47D breast
NCI/ADR-RES ovarian = system: NCI/ADR-RES ovarian
SF-539 CNS = system: SF-539 CNS
NCI-H226 lung = system: NCI-H226 lung
OVCAR-4 ovarian = system: OVCAR-4 ovarian
COLO 205 colon = system: COLO 205 colon
LOX IMVI melanoma = system: LOX IMVI melanoma
SF-295 CNS = system: SF-295 CNS
RXF 393 renal = system: RXF 393 renal
HOP-62 NSCLC = system: HOP-62 NSCLC
K-562 leukemia = system: K-562 leukemia
OVCAR-3 ovarian = system: OVCAR-3 ovarian

C=C(C)C1CC2(C)C(C)CC(OC(=O)/C(C)=C\C)CC2C(OC(=O)/C(C)=C\C)C1O (centres undefined)
TGI (A498 renal): > 100 µM | TGI (MOLT-4 leukemia): 60.3 µM | TGI (KM12 colon): > 100 µM | TGI (CAKI-1 renal): > 100 µM | TGI (M14 melanoma): > 100 µM | TGI (SF-268 CNS): > 100 µM | TGI (SR leukemia): 45.1 µM | TGI (UACC-257 melanoma): > 100 µM | TGI (HOP-92 NSCLC): > 100 µM | TGI (HS 578T breast): > 100 µM | TGI (MDA-MB-435): > 100 µM | TGI (SK-MEL-2 melanoma): > 100 µM | TGI (UACC-62 melanoma): > 100 µM | TGI (NCI-H522 lung): > 100 µM | TGI (SN12C renal): > 100 µM | TGI (PC-3 prostate): > 100 µM | TGI (OVCAR-5 ovarian): > 100 µM | TGI (786-0 renal): > 100 µM | TGI (OVCAR-8 ovarian): > 100 µM | TGI (EKVX NSCLC): > 100 µM | TGI (SK-MEL-28 melanoma): > 100 µM | TGI (HCT-15 colon): > 100 µM | TGI (CCRF-CEM leukemia): 45.8 µM | TGI (HT29 colon): > 100 µM | TGI (NCI-H460 lung): > 100 µM | TGI (SNB-75 CNS): > 100 µM | TGI (A549 NSCLC): > 100 µM | TGI (MALME-3M melanoma): > 100 µM | TGI (HL-60(TB) leukemia): 43.6 µM | TGI (NCI-H23 lung): > 100 µM | TGI (HCC-2998 colon): > 100 µM | TGI (MCF7 breast): > 100 µM | TGI (MDA-N): > 100 µM | TGI (TK-10 renal): > 100 µM | TGI (SK-OV-3 ovarian): > 100 µM | TGI (BT-549 breast): > 100 µM | TGI (DU-145 prostate): > 100 µM | TGI (IGROV1 ovarian): > 100 µM | TGI (SW-620 colon): > 100 µM | TGI (SNB-19 CNS): > 100 µM | TGI (U251 CNS): > 100 µM | TGI (UO-31 renal): > 100 µM | TGI (MDA-MB-231 breast): > 100 µM | TGI (HCT-116 colon): > 100 µM | TGI (SK-MEL-5 melanoma): 43.7 µM | TGI (ACHN renal): > 100 µM | TGI (T-47D breast): > 100 µM | TGI (NCI/ADR-RES ovarian): > 100 µM | TGI (SF-539 CNS): > 100 µM | TGI (NCI-H226 lung): > 100 µM | TGI (OVCAR-4 ovarian): > 100 µM | TGI (COLO 205 colon): 48.4 µM | TGI (LOX IMVI melanoma): > 100 µM

COc1cc(C=C2N=C(c3ccccc3)N(n3c(-c4ccccc4)nc4ccccc4c3=O)C2=O)cc(OC)c1OC
TGI (MOLT-4 leukemia): > 100 µM | TGI (KM12 colon): 46.3 µM | TGI (CAKI-1 renal): > 100 µM | TGI (M14 melanoma): 75.7 µM | TGI (SF-268 CNS): 69 µM | TGI (SR leukemia): > 100 µM | TGI (UACC-257 melanoma): 43 µM | TGI (HOP-92 NSCLC): 33.7 µM | TGI (SF-295 CNS): 41 µM | TGI (HS 578T breast): 51.6 µM | TGI (MDA-MB-435): 55.3 µM | TGI (RXF 393 renal): 39.2 µM | TGI (SK-MEL-2 melanoma): 43.4 µM | TGI (UACC-62 melanoma): 51 µM | TGI (NCI-H522 lung): 39.7 µM | TGI (SN12C renal): 36.2 µM | TGI (HOP-62 NSCLC): 29.9 µM | TGI (PC-3 prostate): > 100 µM | TGI (OVCAR-5 ovarian): > 100 µM | TGI (786-0 renal): 45.9 µM | TGI (OVCAR-8 ovarian): 51.4 µM | TGI (EKVX NSCLC): 83.5 µM | TGI (SK-MEL-28 melanoma): 35.5 µM | TGI (HCT-15 colon): > 100 µM | TGI (CCRF-CEM leukemia): > 100 µM | TGI (HT29 colon): 78.1 µM | TGI (NCI-H460 lung): 47.2 µM | TGI (SNB-75 CNS): 62.6 µM | TGI (A549 NSCLC): > 100 µM | TGI (MALME-3M melanoma): 38.6 µM | TGI (K-562 leukemia): > 100 µM | TGI (HL-60(TB) leukemia): > 100 µM | TGI (NCI-H23 lung): 56.6 µM | TGI (HCC-2998 colon): 89.6 µM | TGI (MCF7 breast): 60.7 µM | TGI (MDA-N): 92.6 µM | TGI (OVCAR-3 ovarian): 54 µM | TGI (TK-10 renal): > 100 µM | TGI (SK-OV-3 ovarian): 91.4 µM | TGI (BT-549 breast): 32.5 µM | TGI (DU-145 prostate): 79.9 µM | TGI (IGROV1 ovarian): 94.4 µM | TGI (SW-620 colon): > 100 µM | TGI (SNB-19 CNS): 72.3 µM | TGI (UO-31 renal): > 100 µM | TGI (MDA-MB-231 breast): 53.1 µM | TGI (HCT-116 colon): 48.3 µM | TGI (SK-MEL-5 melanoma): 56.6 µM | TGI (ACHN renal): 82.2 µM | TGI (T-47D breast): 50.2 µM | TGI (NCI/ADR-RES ovarian): > 100 µM | TGI (SF-539 CNS): 45.3 µM | TGI (NCI-H226 lung): 49.4 µM | TGI (OVCAR-4 ovarian): 96.5 µM | TGI (COLO 205 colon): 52.8 µM | TGI (LOX IMVI melanoma): 41.3 µM
